inhibition, EC50 and IC50 data for twelve compounds are collected here from patent publication US20120184548A1, “CARBOXYLIC ACID ARYL AMIDES” (priority 2011, published 2012).

By pEC50 is commonly meant the negative decadic logarithm of the EC50, by convention in mol/L. Broadly, the pIC50 is −log10 of the IC50, conventionally taken in molar units.

pEC50, pIC50: −log10 of the molar value.

Assay [1] deals with T1, Human DYRK1B (Homo sapiens, UniProt Q9Y463).
T1 construct: purchased Invitrogen PR8350B (former PV4649)
The assay is described as follows: DYRK1B Kinase TR-FRET (IMAP-Tb) Assay. Type of assay: biochemical. Particulars: for pIC50: TR-FRET, ATP 70 μM, 37° C. for 60 minutes, averages of multiple runs, read-out: Enzyme IC50 DYRK1B. The source says: The kinase TR-FRET (IMAP-Tb) assay uses a fluorescence labeled substrate peptide in the kinase reaction. Upon phosphorylation by the kinase, phosphopeptide is produced, which will be detected by the binding solution provided in IMAP TR-FRET binding kit. After the completion of the kinase reaction, the reaction will be stopped by adding the binding solution containing terbium tracer. This tracer is immobilized on the surface of the IMAP beads, which also contain metal ions on the beads that bind to the phospho-groups of the products. Thus the phosphorylated product of the reaction can enter into close proximity to the tracer, producing resonance energy transfer. Due to the long lifetime of terbium (Tb) fluorescence the detection can be run in time resolved mode, which virtually eliminates fluorescence interference from assay components or compounds. […] IC50 is the amount of test compound that inhibits 50% of the activity of DYRK1B in this assay. […] 1. Human DYRK1B: from Invitrogen. Part # PR8350B (former PV4649) 2. Substrate Peptide: RRRFRPASPLRGPPK 3. IMAP TR-FRET IPP Explorer Kit: from Molecular Devices. Part # R8157 4. Kinase Assay Buffer (KAB): 10 mM HEPES pH 7.0, 50 mM NaCl, 5 mM MgCl2, 1 mM DTT, 1 mM NaVO4, 200 μg/mL BSA (0.02%) 5. Assay Plate: Remp polypropylene clear 384-well microplate. Cat#23490-102 6. Detection Plate: Costa black 384-well microplate. Cat #3710 Assay Procedure: This assay was performed as follows: 1. Transfer 1.5 μL of 20× compound solution to each well of an assay plate. 2. Add to each well 22.5 μL of KAB Buffer. 3. Add to each well 3 μL of the solution of DYRK1B and ATP. […] Add to each well 3 μL of the substrate peptide. […] Incubate the assay plates at 37° C. for 60 minutes. 6. Add 18 μL of Detection Solution (1:800 diluted Progress bead stock, 1:400 diluted Tb stock, 80% Buffer A, and 20% Buffer B) into each well of detection plates. 7. Transfer 6 μL of assay solution from the assay plate to the detection plate. 8. Shake detection plates for 30 minutes. 9. Read plates in Envision with wavelength set at excitation 340 nm for Tb, emission 490 nm, and […]. 10. Calculation: TR-FRET Signal=(Reading at […])×2000000
(Time-resolved FRET reads energy transfer from a long-lived donor to a nearby acceptor.)

For assay [2], the target named is T2, Human DYRK1A (Homo sapiens, UniProt Q13627).
T2 construct: purchased Invitrogen PV3997
Nature of the assay: DYRK1A Kinase TR-FRET (IMAP-Tb) Assay. In kind it is biochemical. Particulars: for pIC50: TR-FRET, ATP 70 μM, 37° C. for 60 minutes, averages of multiple runs, read-out: Enzyme IC50 DYRK1A. The source says:
The kinase TR-FRET (IMAP-Tb) assay uses a fluorescence labeled substrate peptide in the kinase reaction. Upon phosphorylation by the kinase, phosphopeptide is produced, which will be detected by the binding solution provided in IMAP TR-FRET binding kit. After the completion of the kinase reaction, the reaction will be stopped by adding the binding solution containing terbium tracer. This tracer is immobilized on the surface of the IMAP beads, which also contain metal ions on the beads that bind to the phospho-groups of the products. Thus the phosphorylated product of the reaction can enter into close proximity to the tracer, producing resonance energy transfer. Due to the long lifetime of terbium (Tb) fluorescence the detection can be run in time resolved mode, which virtually eliminates fluorescence interference from assay components or compounds.
The TR-FRET signal measurement from this assay, given as an IC50 measurement, is a measure of a test compound's ability to interfere with the phosphorylation of the peptide substrate, that is it inhibits the phosphorylation of the substrate peptide by DYRK1A, and is thus a measure of the test compound's ability to inhibit the activity of DYRK1A.
1. Human DYRK1A: from Invitrogen. Part # PV3997
2. Substrate Peptide: […]
3. IMAP TR-FRET IPP Explorer Kit: from Molecular Devices. Part # R8157 4. Kinase Assay Buffer (KAB): 10 mM HEPES pH 7.0, 50 mM NaCl, 5 mM MgCl2, 1 mM DTT, 1 mM NaVO4, 200 μg/mL BSA (0.02%) 5. Assay Plate: Remp polypropylene clear 384-well microplate. […] Detection Plate: Costa black 384-well microplate. […] Transfer 1.5 μL of 20× compound solution to each well of an assay plate. 2. Add to each well 22.5 μL of KAB Buffer. 3. Add to each well 3 μL of the solution of DYRK1A and ATP. […] Add to each well 3 μL of the substrate peptide. The assay concentration is 1.0 μM 5. Incubate the assay plates at 37° C. for 60 minutes. 6. Add 18 μL of Detection Solution (1:800 diluted Progress bead stock, 1:400 diluted Tb stock, 80% Buffer A, and 20% Buffer B) into each well of detection plates. 7. Transfer 6 μL of assay solution from the assay plate to the detection plate. 8. Shake detection plates for 30 minutes. 9. Read plates in Envision with wavelength set at excitation 340 nm for Tb, emission 490 nm, and […].

Assay [3] concerns SW620 human colon cancer cells. Nature of the assay: SW620 Cell Viability Assay (CellTiter-Glo). Type of assay: cell-based. Particulars: SW-620, 96 h, 4 days incubation, read-out: Cellular EC50 SW620. As for the experimental part:
1. Cell Plate Preparation: SW620 human colon cancer cells (known to express DYRK1B), obtained from ATCC, were seeded into 96-well plates at […] in 50 μL of media. • Harvested the required number of cells (counts & viability determined by Guava Viacount). • Centrifuge cells to pellet and removed supernant. • Resuspended in growth media (50 μL/well) & pipetted thoroughly to break up clumps. • Setup for ˜100 wells/plate, therefore, VT=5 mL/plate @ 1.2×10^5 cells/mL. 1A. Some cells (S-) were allowed to attach for 24 hrs, serum starved for 48 hrs, and then followed with treatments of test compound.
Test Compound solution was prepared in regular corresponding media supplemented with serum
2. Test Compound Preparation: Test compounds were solubilized in either DMSO or media and prepared at various stock concentrations. • All compounds were incubated at 37° C. for 30 minutes and vortexed. • (5 mM stocks of test compound were prepared for non-soluble drugs)
3. Test Compound Plate Preparation:
• The 10 mM test compound stock was diluted to a concentration of 100× the final Cmax concentration. • Then the test compound stock is diluted 50-fold in media and/or second test compound for a final Cmax concentration in the test compound plate. • The Cmax in the test compound plate (2% DMSO) is 2-fold higher than the final Cmax in the cell plate (60 uL titrations were 1:3). 4. Viability Assay: This assay was performed as follows: • Transfer 50 μL of test compound solution per well from the test compound plate onto the cell plate prepared in Step #1. • Mix the plate with treated cells by pipetting up and down three times with 200 μL multi-channel pipet. • Incubate the cells in 5% CO2 incubator @ 37° C. for 4 days. • Run the CellTiter-Glo™ Luminescent Cell Viability Assay. The results of this assay, given as EC50 values, indicate the concentration of test compound that inhibits tumor cell proliferation by 50%.
Background: Cellular ATP, detected with luciferase, serves as a proxy for viable cell number.

T1 sequence (Q9Y463 whole entry): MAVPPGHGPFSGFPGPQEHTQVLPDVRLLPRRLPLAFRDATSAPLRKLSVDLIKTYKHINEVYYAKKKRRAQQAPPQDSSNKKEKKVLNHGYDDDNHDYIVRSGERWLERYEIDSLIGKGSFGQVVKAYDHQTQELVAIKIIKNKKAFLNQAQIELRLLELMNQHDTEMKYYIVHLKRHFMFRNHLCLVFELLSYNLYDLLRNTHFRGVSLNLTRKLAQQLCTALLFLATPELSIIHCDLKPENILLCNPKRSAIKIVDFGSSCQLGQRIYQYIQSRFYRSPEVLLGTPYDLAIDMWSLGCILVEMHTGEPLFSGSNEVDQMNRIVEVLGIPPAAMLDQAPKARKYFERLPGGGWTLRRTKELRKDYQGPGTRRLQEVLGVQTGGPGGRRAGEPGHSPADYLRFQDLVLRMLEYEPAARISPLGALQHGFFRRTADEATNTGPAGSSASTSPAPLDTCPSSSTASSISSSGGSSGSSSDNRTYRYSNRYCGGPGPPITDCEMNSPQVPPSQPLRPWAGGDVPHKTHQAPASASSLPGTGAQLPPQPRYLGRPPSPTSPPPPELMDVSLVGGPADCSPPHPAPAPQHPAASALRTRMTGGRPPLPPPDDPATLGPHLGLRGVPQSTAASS

Take `COC(=O)c1ccc(Cl)c(NC(=O)c2cc3cc(OC)c(OC)cc3[nH]c2=O)c1` [Example 19, 4-Chloro-3-[(6,7-dimethoxy-2-oxo-1,2-dihydro-quinoline-3-carbonyl)-amino]-benzoic acid methyl ester]: the inhibition at 10 µM in assay [1] (10 μM test compound, reported where IC50 was not determined, read-out: Enzyme DYRK1B % inhibition at 10 μM test compound concentration) was 47%; in assay [2] (10 μM test compound, reported where IC50 was not determined, read-out: Enzyme DYRK1A % inhibition at 10 μM test compound concentration) it was 44%. For the same compound, the pEC50 in assay [3] is less than 5.00.

Regarding `COCCOc1cc2cc(C(=O)Nc3cc(C(=O)NC(CN)c4ccccc4)ccc3C)c(=O)[nH]c2cc1OC` (stereo not drawn) [Example 37, 7-Methoxy-6-(2-methoxy-ethoxy)-2-oxo-1,2-dihydro-quinoline-3-carboxylic acid [5-(2-amino-1-phenyl-ethylcarbamoyl)-2-methyl-phenyl]-amide], the pIC50 was 7.49 in assay [1] and 7.72 in assay [2]. The pEC50 in assay [3] is 5.74.

Take `COc1cc2[nH]c(=O)c(C(=O)Nc3cc(C(=O)NCc4cccc(Cl)c4)ccc3C)cc2cc1OCCN1CCOCC1` [Example 43, 7-Methoxy-6-(2-morpholin-4-yl-ethoxy)-2-oxo-1,2-dihydro-quinoline-3-carboxylic acid [5-(3-chloro-benzylcarbamoyl)-2-methyl-phenyl]-amide]: the figures for the pIC50 in assay [1] and in assay [2] were 6.75 and 8.22, respectively. Also, in assay [3], the pEC50 is 6.51.

With `COCCOc1cc2cc(C(=O)Nc3cc(C(=O)NCc4cccc(Cl)c4)ccc3C)c(=O)[nH]c2cc1OC` [Example 52, 7-Methoxy-6-(2-methoxy-ethoxy)-2-oxo-1,2-dihydro-quinoline-3-carboxylic acid [5-(3-chloro-benzylcarbamoyl)-2-methyl-phenyl]-amide], the results for the pIC50 in assay [1] and in assay [2] were 6.74 and 6.93, respectively. Also, the pEC50 in assay [3] was 6.11.

With `COC(=O)c1ccc(C)c(NC(=O)c2cc3cc(OCCN4CCOCC4)c(OC)cc3[nH]c2=O)c1` [Example 39, 3-{[7-Methoxy-6-(2-morpholin-4-yl-ethoxy)-2-oxo-1,2-dihydro-quinoline-3-carbonyl]-amino}-4-methyl-benzoic acid methyl ester], the figures for the pIC50 in assay [1] and in assay [2] were 6.72 and 6.82, respectively. The pEC50 in assay [3] was 5.47.

`COc1cc2cc(C(=O)Nc3cc(C(=O)NC(CCN)c4ccccc4)ccc3C)c(=O)[nH]c2cc1OC` (stereo not drawn) [Example 35, 6,7-Dimethoxy-2-oxo-1,2-dihydro-quinoline-3-carboxylic acid [5-(3-amino-1-phenyl-propylcarbamoyl)-2-methyl-phenyl]-amide]: the pIC50 was 7.23 in assay [1] and 6.81 in assay [2]. In addition, in assay [3], the pEC50 was 5.69.

In the case of `COCCOc1cc2cc(C(=O)Nc3cc(C(=O)N[C@@H](CCN)c4ccccc4)ccc3Cl)c(=O)[nH]c2cc1OC` [Example 64, (S)-N-(5-(3-Amino-1-phenylpropylcarbamoyl)-2-chlorophenyl)-7-methoxy-6-(2-methoxyethoxy)-2-oxo-1,2-dihydroquinoline-3-carboxamide], the pIC50 in assay [1] was 6.60; in assay [2], 6.73. For the same compound, the pEC50 in assay [3] is 5.04.

As to `COCCOc1cc2cc(C(=O)Nc3cc(C(=O)NC(CN)c4ccccc4)ccc3Cl)c(=O)[nH]c2cc1OC` (stereo not drawn) [Example 62, N-(5-(2-Amino-1-phenylethylcarbamoyl)-2-chlorophenyl)-7-methoxy-6-(2-methoxyethoxy)-2-oxo-1,2-dihydroquinoline-3-carboxamide], the pIC50 was 7.54 in assay [1] and 7.94 in assay [2]. In addition, the pEC50 in assay [3] was 6.36.

Consider `COc1cc2[nH]c(=O)c(C(=O)Nc3cc(C(=O)NC(CCN)c4ccccc4)ccc3C)cc2cc1OCCN1CCOCC1` (stereo not drawn) [Example 44, 7-Methoxy-6-(2-morpholin-4-yl-ethoxy)-2-oxo-1,2-dihydro-quinoline-3-carboxylic acid [5-(3-amino-1-phenyl-propylcarbamoyl)-2-methyl-phenyl]-amide], for which the results for the pIC50 in assay [1] and in assay [2] were 7.20 and 7.48, respectively. In addition, in assay [3], the pEC50 is less than 5.52.

Consider `COc1cc2cc(C(=O)Nc3cc(C(=O)NC(CCN)c4ccccc4)ccc3C)c(=O)[nH]c2cc1OC` (stereo in doubt) [Example 47, 6,7-Dimethoxy-2-oxo-1,2-dihydro-quinoline-3-carboxylic acid [5-((R)-3-amino-1-phenyl-propylcarbamoyl)-2-methyl-phenyl]-amide], for which the pIC50 in assay [1] is 7.85; in assay [2], 7.07. For the same compound, in assay [3], the pEC50 was less than 5.52.

For `COCCOc1cc2cc(C(=O)Nc3cc(C(=O)N[C@H](CCN)c4ccccc4)ccc3Cl)c(=O)[nH]c2cc1OC` [Example 63, (R)-N-(5-(3-Amino-1-phenylpropylcarbamoyl)-2-chlorophenyl)-7-methoxy-6-(2-methoxyethoxy)-2-oxo-1,2-dihydroquinoline-3-carboxamide], the pIC50 in assay [1] is 8.10; in assay [2], 8.30. For the same compound, the pEC50 in assay [3] is 6.19.

Take `COc1cc2cc(C(=O)Nc3cc(C(=O)NCc4ccccc4)ccc3C)c(=O)[nH]c2cc1OC` [Example 42, 6,7-Dimethoxy-2-oxo-1,2-dihydro-quinoline-3-carboxylic acid (5-benzylcarbamoyl-2-methyl-phenyl)-amide]: the pIC50 in assay [1] is 6.49; in assay [2], 6.65. Also, the pEC50 in assay [3] is less than 5.00.
